Measurements taken from patent US9867376B2, “Herbicidal compositions comprising N-tetrazol-5-yl)- or N-(triazol-5-yl)arylcarboxamides” (priority 2012, dated 2018).

Key:
Assay type in all cases: in vivo
Euphorbia heterophylla = assay: Field trial, post-emergence, visual scoring
Protocol: (§1) The tests were conducted outdoors (plot trials, 10 m^2 per plot, 2 repetitions, spray application with 200-300 liters of water per hectare). Crops and broad-leaved weeds/weed grasses were sown under customary field conditions. In addition, a natural weed flora also appeared. Application was by the post-emergence method. The application rates of the herbicidally active compounds applied on their own or in combinations are likewise shown in the tables below. Evaluations were by visual scoring (using a 0-100% scale) after application by comparison of treated and untreated test variants.
(§2) The abbreviations denote: • a.i.=active ingredient • E^C=expected value according to Colby (E^C=A+B−A×B100) • Δ=difference (%) of the measured value to the expected value (%) (measured value minus expected value)
(§3) Evaluation: • measured value E is greater than E^C:→synergism (+Δ) • measured value E equals E^C:→additive effect • measured value E is smaller than E^C:→antagonism (−Δ)

Ambrosia artemisiifolia = assay: Greenhouse trial, post-emergence, visual herbicidal effect; details: alone
Protocol: (§4) The weed seeds were sown in pots (diameter 8 cm) with sandy loam soil and germinated under optimum conditions. The herbides were applied by the post-emergence method onto the pots with the cultures, at a spray volume of 300 I/ha. The herbicides were applied on their own and in combination. The trial was conducted in a greenhouse under optimum growth conditions. The herbicidal effects were assessed visually by comparison of untreated and treated plants. The percentages mean: 0%=no effects, 100%=the plants die off completely). The percentages are used to calculate interactions between individual treatments and combination treatment according to S. R. Colby, Weeds 15, pages 20 to 22 (1967).
as §2, §3

Xanthium strumarium = assay: as above; details: alone
Protocol: as §4, §2, §3

Avena fatua = assay: as above; details: Table 5-49, greenhouse, alone, 4 g of a.i./ha
Protocol: as §4, §2, §3

Centaurea cyanis = assay: as above; details: alone
Protocol: as §4, §2, §3

Papaver rhoeas = assay: as above; details: alone
Protocol: as §4, §2, §3

Polygonum convolvulus = assay: as above; details: alone
Protocol: as §4, §2, §3

Digitaria sanguinalis = assay: as above
Protocol: as §4, §2, §3

Setaria viridis = assay: as above; details: alone
Protocol: as §4, §2, §3

Pharbitis purpurea = assay: as above; details: alone
Protocol: as §4, §2, §3

Bidens pilosa = assay: as above
Protocol: as §4, §2, §3

Brachiaria platyphylla = assay: as above
Protocol: as §4, §2, §3

Echinochloa crus-galli = assay: as above
Protocol: as §4, §2, §3

Veronica hederifolia = assay: Field trial, post-emergence, visual scoring; details: alone, 25 g of a.i./ha
Protocol: as §1, §2, §3

Cc1c(C(=O)Nc2ncnn2C)ccc(S(C)(=O)=O)c1S(C)(=O)=O [A2-4]
Activity [%] against Euphorbia heterophylla (Euphorbia heterophylla; Field, dosage 25 g of a.i./ha): 50%
Activity [%] against Ambrosia artemisiifolia (Ambrosia artemisiifolia; Table 5-102, greenhouse, 1 g of a.i./ha): 40%
Activity [%] against Xanthium strumarium (Xanthium strumarium; Table 5-103, greenhouse, 2 g of a.i./ha): 10%

COc1c(C(=O)Nc2nnnn2C)ccc(C(F)(F)F)c1SC [A1-44]
Activity [%] against Euphorbia heterophylla (Euphorbia heterophylla; Table 5-51, field, alone, 25 g of a.i./ha): 58%
Activity [%] against Avena fatua (Avena fatua): 0%
Activity [%] against Centaurea cyanis (Centaurea cyanis; Table 5-50, greenhouse, 8 g of a.i./ha): 50%

CCOc1c(S(C)(=O)=O)ccc(C(=O)Nc2nnnn2C)c1Cl [A1-69]
Activity [%] against Euphorbia heterophylla (Euphorbia heterophylla; Table 5-85, field, alone, 25 g of a.i./ha): 20%
Activity [%] against Papaver rhoeas (Papaver rhoeas; Table 5-82, greenhouse, 4 g of a.i./ha): 10%
Activity [%] against Papaver rhoeas (Papaver rhoeas; Table 5-83, greenhouse, 4 g of a.i./ha): 10%
Activity [%] against Polygonum convolvulus (Polygonum convolvulus; Table 5-84, greenhouse, 4 g of a.i./ha): 0%
Activity [%] against Centaurea cyanis (Centaurea cyanis; Table 5-81, greenhouse, 4 g of a.i./ha): 65%

CCSc1c(Br)ccc(C(=O)Nc2nnnn2C)c1C [A1-23]
Activity [%] against Digitaria sanguinalis (Digitaria sanguinalis; Table 5-35, greenhouse, alone, 1 g of a.i./ha): 10%
Activity [%] against Ambrosia artemisiifolia (Ambrosia artemisiifolia; Table 5-29, greenhouse, 1 g of a.i./ha): 10%
Activity [%] against Ambrosia artemisiifolia (Ambrosia artemisiifolia; Table 5-32, greenhouse, 1 g of a.i./ha): 0%
Activity [%] against Setaria viridis (Setaria viridis; Table 5-27, greenhouse, 2 g of a.i./ha): 50%
Activity [%] against Setaria viridis (Setaria viridis; Table 5-31, greenhouse, 2 g of a.i./ha): 50%
Activity [%] against Pharbitis purpurea (Pharbitis purpurea; Table 5-30, greenhouse, 1 g of a.i./ha): 45%
Activity [%] against Pharbitis purpurea (Pharbitis purpurea; Table 5-34, greenhouse, 2 g of a.i./ha): 45%
Activity [%] against Bidens pilosa (Bidens pilosa; Table 5-28, greenhouse, alone, 2 g of a.i./ha): 45%
Activity [%] against Bidens pilosa (Bidens pilosa; Table 5-33, greenhouse, alone, 1 g of a.i./ha): 35%

COc1c(Cl)ccc(Cl)c1C(=O)O [dicamba]
Activity [%] against Brachiaria platyphylla (Brachiaria platyphylla; Greenhouse, dosage 12.5 g of a.i./ha, Table 5-105): 0%
Activity [%] against Brachiaria platyphylla (Brachiaria platyphylla; Table 5-64, greenhouse, alone, 25 g of a.i./ha): 10%
Activity [%] against Brachiaria platyphylla (Brachiaria platyphylla; Table 5-94, greenhouse, alone, 12.5 g of a.i./ha): 0%
Activity [%] against Digitaria sanguinalis (Digitaria sanguinalis; Greenhouse, dosage 12.5 g of a.i./ha): 0%
Activity [%] against Setaria viridis (Setaria viridis; Table 5-65, greenhouse, 25 g of a.i./ha): 0%
Activity [%] against Echinochloa crus-galli (Echinochloa crus-galli; Greenhouse, dosage 12.5 g of a.i./ha, Table 5-108): 0%
Activity [%] against Echinochloa crus-galli (Echinochloa crus-galli; Greenhouse, dosage 12.5 g of a.i./ha, Table 5-115): 0%
Activity [%] against Echinochloa crus-galli (Echinochloa crus-galli; Table 5-95, greenhouse, alone, 12.5 g of a.i./ha): 0%

Cn1ncnc1NC(=O)c1ccc(C(F)(F)F)c(S(C)(=O)=O)c1Cl [A2-9]
Activity [%] against Brachiaria platyphylla (Brachiaria platyphylla; Greenhouse, dosage 1 g of a.i./ha, Table 5-105): 0%
Activity [%] against Digitaria sanguinalis (Digitaria sanguinalis; Greenhouse, dosage 2 g of a.i./ha): 65%
Activity [%] against Echinochloa crus-galli (Echinochloa crus-galli; Greenhouse, dosage 1 g of a.i./ha, Table 5-108): 0%

CC(C)c1ccc(NC(=O)N(C)C)cc1 [isoproturon]
Activity [%] against Papaver rhoeas (Papaver rhoeas; Table 5-82, greenhouse, 200 g of a.i./ha): 40%
Activity [%] against Papaver rhoeas (Papaver rhoeas; Table 5-83, greenhouse, 200 g of a.i./ha): 40%
Activity [%] against Setaria viridis (Setaria viridis; Table 5-43, greenhouse, 200 g of a.i./ha): 10%
Activity [%] against Polygonum convolvulus (Polygonum convolvulus; Table 5-44, greenhouse, 200 g of a.i./ha): 0%
Activity [%] against Polygonum convolvulus (Polygonum convolvulus; Table 5-84, greenhouse, 200 g of a.i./ha): 0%
Activity [%] against Centaurea cyanis (Centaurea cyanis; Table 5-81, greenhouse, 100 g of a.i./ha): 0%

CCS(=O)(=O)c1ccc(C(=O)Nc2nnnn2C)c(Cl)c1C1=NOC(COC)C1 (stereo not shown) [A1-66]
Activity [%] against Veronica hederifolia (Veronica hederifolia; Table 5-76, field): 75%
Activity [%] against Ambrosia artemisiifolia (Ambrosia artemisiifolia; Table 5-75, greenhouse, 6 g of a.i./ha): 35%

Cn1nnnc1NC(=O)c1ccc(S(C)(=O)=O)c(COCC(F)(F)F)c1Cl [A1-61]
Activity [%] against Veronica hederifolia (Veronica hederifolia; Table 5-66, field): 68%
Activity [%] against Brachiaria platyphylla (Brachiaria platyphylla; Table 5-64, greenhouse, alone, 6 g of a.i./ha): 0%
Activity [%] against Setaria viridis (Setaria viridis; Table 5-65, greenhouse, 3 g of a.i./ha): 0%

CCC(CC)Nc1c([N+](=O)[O-])cc(C)c(C)c1[N+](=O)[O-] [pendimethalin]
Activity [%] against Digitaria sanguinalis (Digitaria sanguinalis; Table 5-36, greenhouse, alone, 50 g of a.i./ha): 0%
Activity [%] against Xanthium strumarium (Xanthium strumarium; Table 5-77, greenhouse, 100 g of a.i./ha): 0%
Activity [%] against Polygonum convolvulus (Polygonum convolvulus; Table 5-37, greenhouse, 100 g of a.i./ha): 0%
Activity [%] against Polygonum convolvulus (Polygonum convolvulus; Table 5-78, greenhouse, 100 g of a.i./ha): 0%

COc1c(C(=O)Nc2nnnn2C)ccc(C(F)F)c1SC [A1-81]
Activity [%] against Brachiaria platyphylla (Brachiaria platyphylla; Table 5-94, greenhouse, alone, 1 g of a.i./ha): 10%
Activity [%] against Echinochloa crus-galli (Echinochloa crus-galli; Table 5-95, greenhouse, alone, 1 g of a.i./ha): 10%

O=c1[nH]c2c(c(=O)n1C1CCCCC1)CCC2 [lenacil]
Activity [%] against Brachiaria platyphylla (Brachiaria platyphylla; Greenhouse, dosage 4 g of a.i./ha, Table 5-109): 0%
Activity [%] against Brachiaria platyphylla (Brachiaria platyphylla; Greenhouse, dosage 4 g of a.i./ha, Table 5-110): 0%
Activity [%] against Brachiaria platyphylla (Brachiaria platyphylla; Table 5-55, greenhouse, alone, 4 g of a.i./ha): 0%
Activity [%] against Brachiaria platyphylla (Brachiaria platyphylla; Table 5-57, greenhouse, alone, 4 g of a.i./ha): 0%
Activity [%] against Brachiaria platyphylla (Brachiaria platyphylla; Table 5-67, greenhouse, alone, 800 g of a.i./ha): 0%
Activity [%] against Digitaria sanguinalis (Digitaria sanguinalis; Table 5-35, greenhouse, alone, 4 g of a.i./ha): 0%
Activity [%] against Digitaria sanguinalis (Digitaria sanguinalis; Table 5-68, greenhouse, alone, 400 g of a.i./ha): 0%
Activity [%] against Ambrosia artemisiifolia (Ambrosia artemisiifolia; Table 5-29, greenhouse, 16 g of a.i./ha): 0%
Activity [%] against Ambrosia artemisiifolia (Ambrosia artemisiifolia; Table 5-32, greenhouse, 4 g of a.i./ha): 0%
Activity [%] against Xanthium strumarium (Xanthium strumarium; Table 5-56, greenhouse, 4 g of a.i./ha): 0%
Activity [%] against Xanthium strumarium (Xanthium strumarium; Table 5-73, greenhouse, 400 g of a.i./ha): 0%
Activity [%] against Setaria viridis (Setaria viridis; Table 5-27, greenhouse, 8 g of a.i./ha): 0%
Activity [%] against Setaria viridis (Setaria viridis; Table 5-31, greenhouse, 8 g of a.i./ha): 0%
Activity [%] against Setaria viridis (Setaria viridis; Table 5-70, greenhouse, 100 g of a.i./ha): 0%
Activity [%] against Echinochloa crus-galli (Echinochloa crus-galli; Table 5-69, greenhouse, alone, 400 g of a.i./ha): 0%
Activity [%] against Pharbitis purpurea (Pharbitis purpurea; Table 5-30, greenhouse, 4 g of a.i./ha): 0%
Activity [%] against Pharbitis purpurea (Pharbitis purpurea; Table 5-34, greenhouse, 4 g of a.i./ha): 0%
Activity [%] against Pharbitis purpurea (Pharbitis purpurea; Table 5-72, greenhouse, 100 g of a.i./ha): 0%
Activity [%] against Bidens pilosa (Bidens pilosa; Greenhouse, dosage 4 g of a.i./ha): 0%
Activity [%] against Bidens pilosa (Bidens pilosa; Table 5-28, greenhouse, alone, 4 g of a.i./ha): 0%
Activity [%] against Bidens pilosa (Bidens pilosa; Table 5-33, greenhouse, alone, 4 g of a.i./ha): 0%
Activity [%] against Bidens pilosa (Bidens pilosa; Table 5-71, greenhouse, alone, 400 g of a.i./ha): 0%
